The source of these data is patent publication US7879547B2, “Method of detecting the presence of asthma or allergies in a patient” (Children's Hospital Medical Center, priority 2002, dated 2011).

Experiment [1] has as its system lung arginase. The experiment can be described thus: Arginase activity in lung lysates incubated with NOHA in vitro (blood urea nitrogen reagent). The format is biochemical, mice. The method, then: (§1) FIGS. 11A and 11B are line graphs showing the results of treating lung lysates with N(omega)-hydroxy-L-arginine (NOHA). FIG. 11A illustrates in vitro treatment of lung lysates from […] with NOHA. FIG. 11B illustrates in vitro treatment of transgenic mice that overexpress interleukin 4 with NOHA.
(§2) Arginase activity was measured using the blood urea nitrogen reagent (Sigma Chemical Company, St. Louis, Mo.) according to established techniques as exemplified in Wei, L. H., et al., Proc Natl Acad Sci USA 98, 9260-4. (2001); Li, H. et al. Am J Physiol Regul Integr Comp Physiol 282, R64-R69. (2002); Wei, L. H. et al., Am J Physiol Cell Physiol 279, C248-56. (2000). To measure levels of putrescine following acid extraction, ion-pair reverse phase high performance liquid chromatography was performed.
(§3) IL-4 lung transgenic mice, which have markedly elevated level of lung arginase mRNA and activity, were used to examine the effect of NOHA in vitro and in vivo (FIG. 11). In FIG. 11A, lung lysates from IL-4 lung transgenic mice were incubated with NOHA and the arginase activity at different doses of NOHA (x axis) and arginine is shown. In FIG. 11B, IL-4 transgenic mice were treated with intratracheal NOHA (two doses: 10 and 100 mcg) and the arginase activity in the lungs was measured 4 hrs later.

Experiment [2] has as its system lung arginase. Briefly: Lung arginase activity after intratracheal NOHA in IL-4 lung transgenic mice. It counts as in vivo. The following applies: IL-4 transgenic mice, intratracheal NOHA 10 and 100 mcg, measured 4 hrs later, FIG. 11B. The protocol: as §1, §2, §3
Experiment [3] relates to IL4/IL5 lung transgenic mice. The experiment can be described thus: Airway hyperresponsiveness to methacholine (Penh, barometric plethysmography) after intratracheal NOHA. The following applies: intratracheal NOHA 100 mcg, Penh recorded 4 hrs later, Example 20, FIG. 12. It counts as in vivo. The protocol:
FIG. 12 is a line graph showing the results of airway hyperreactivity measurements (recorded as Penh) in asthmatic mice (IL4/IL5 bitransgenic lung mice) treated with intratracheal NOHA. Airway reactivity to methacholine was assessed in conscious, unrestrained mice by barometric plethysmography, using apparatus and software supplied by Buxco (Troy, N.Y.). This system yields a dimensionless parameter known as enhanced pause (Penh), reflecting changes in wave-form of the pressure signal from the plethysmography chamber combined with a timing comparison of early and late expiration, which can be used to empirically monitor airway function. […]

The subject of a further experiment is asthma. Briefly: Treatment of individual suffering from asthma with anti-arginase compound (inhalation). The following applies: inhalation of therapeutically effective amount. The format is in vivo. The source says: An individual suffering from asthma is identified. The individual is provided with a therapeutically effective amount of N(omega)-hydroxy-L-arginine to reduce the indications of asthma.

As to `N=C(NO)NCCC[C@H](N)C(=O)O` [NOHA, N(omega)-hydroxy-L-arginine], in the experiment on lung arginase [1] (lung lysates from IL-4 lung transgenic mice incubated with different doses of NOHA and arginine, FIG. 11A), the “arginase activity in lung lysates” value is recorded as “effective to reduce arginase activity in lung lysates”. For the same compound, the “arginase activity in the asthmatic lung” value in the experiment with lung arginase [1] (summary statement referring to Example 15) was “blocks arginase activity in the asthmatic lung”. Moreover, the “arginase activity in the lungs” value with lung arginase [2] is on record as “effective to reduce arginase activity”. Also, in experiment [3], the “development of allergen-induced airway hyperresponsiveness (Penh)” value is “blocks the development of allergen-induced airway hyperesponsiveness”. In addition, the asthma symptoms result with asthma was “asthma symptoms are reduced”.
